Results: patent US12221494B2, “Short synthetic peptides and their uses for treating retinal degenerative diseases and/or tissue injuries” (MacKay Memorial Hospital, priority 2019, dated 2025)

Columns and labels:
[1] = test system: Sprague-Dawley rats, retinal ischemia/reperfusion (I/R) injury; assay: TUNEL staining of I/R-injured rat retina (20 h); format: in vivo
Procedure: Experimental procedures were approved by the Mackay Memorial Hospital Review Board (Taiwan, R.O.C.). All surgeries were performed under aseptic conditions. Adult 10-week-old male Sprague-Dawley rats (initial body weight=312±11 g) were anesthetized by an intraperitoneal injection of xylazine (10 mg/kg). Peptide was dissolved in 0.85% normal saline to 1 mM and delivered by the subconjunctival injection of 100 μL peptide through a 31-Gneedle with a micro-syringe before the induction of I/R. Normal saline was as a vehicle control. Rat I/R was performed after peptide or vehicle injection for 4 h. Pupils were dilated with 0.5% tropicamide and 0.5% phenylephrine. Body temperature was maintained at 37° C. using a heating blanket After dilation of the pupil, the anterior chamber of the right eye was cannulated with a 27-gauge needle connected to a physiological saline reservoir. The intraocular pressure (IOP) was raised to 110 mmHg by keeping the reservoir at 150 cm above the eye, and retinal ischemia was confirmed by observing whitening of the iris and the loss of the red reflex of the retina. After 90 min of ischemia, the cannulating needle was withdrawn and the IOP was returned to normal pressure, resulting in recovery of the blood supply from the retinal artery and reperfusion injury induced. The reperfusion was evident by the return of the red reflex. Corneal analgesia was achieved using 1 or 2 drops of 0.4% oxybuprocaine hydrochloride, and Ofloxacin ophthalmic gel (0.3%) was applied topically to the eye before and after the procedure. Only the right eye was used in all experiments. A sham procedure was performed at left eye served as an intra-animal control.
After I/R for 20 h, rats (n=6 in each group) were euthanized by an overdose of pentobarbital. Enucleated eyeballs were fixed in 4% PFA for 24 h at 4° C. Fixed retinal tissues were embedded in paraffin. To identify apoptosis of retinal cells, 5 μm sections thick cut through the optic disc, de-paraffinized, rehydrated, incubatedwith 20 μg/mL proteinase K for 10 min, and immunofluorescence staining of apoptotic cells was performed using a terminal deoxynucleotidyl transferase(TdT)-mediated dUTP nick-end labeling (TUNEL)-based kit (Roche Molecular Biochemicals, Indianapolis, IN) according to the manufacturer's instructions. Nuclei were located by counterstaining with Hoechst 33258 for 7 min Sections were observed under an epifluorescence microscope (Zeiss Axioplan 2 imaging; Zeiss, Oberkochen, Germany) equipped with a charge-coupled device (CCD) camera (Zeiss AxioCam HRm, Zeiss) (×400, 6 fields/sample), and quantification was performed using Axiovert software (Zeiss AxioVision Release 4.8.2, Zeiss). Three sections per eye were averaged and the mean of six eyes was recorded as the representative value for each group.
In this example, the neuroprotective effect of the 6-mer variant peptides on neural retina cells and retinal capillary system was investigated using a rat model of I/R injury described in the “Material and Methods” section. Briefly, 6-mer variant peptide (1 mM, 120 μl) was injected into the subconjunctival space of Sprague-Dawley rats for 4 h before the induction of I/R. Then, I/R injury was induced in rat retinas by increasing the intraocular pressure (IOP) in the eye to 110 mmHg for 90 min, followed by 20 h of reperfusion. Subsequently, the level of retinal cell apoptosis was evaluated using TUNEL staining. In addition, the retinal morphology was analyzed with H&E staining 14 days after the I/R injury. Results are summarized in FIGS. 6 to 10, and Tables 6 to 9.

[2] = test system: STZ-induced diabetic mice; assay: GFAP immunofluorescence staining of retina of STZ-induced diabetic mice; format: in vivo, mouse; conditions: eye drop, 14 days after STZ injection, vehicle/STZ 24.3±2.7
Procedure: Deparaffinized retinal sections were blocked with 10% goat serum and 5% bovine serum albumin (BSA) in PBS containing 0.5% TritonX-100 (PBST) for 20 min at room temperature for blocking nonspecific staining. Staining was performed using primary antibodies against glial fibrillary acidic protein (GFAP) (1:100 dilution) or Iba-1 (1:100 dilution) at 37° C. for 3 h. The slides were subsequently incubated with the appropriate fluorescent-labeled secondary antibodies (1:500 dilution) at 37° C. for 1 h and then counterstained with Hoechst 33258 for 6 min. The slides were then rinsed with PBST three times, mounted with FluorSave™ reagent (Calbiochem) and viewed with an epifluorescence microscope (Zeiss Axioplan 2 imaging; Zeiss, Oberkochen, Germany) Three sections per eye were averaged and the mean of six eyes was recorded as the representative value for each group.
Diabetic mice were generated by intraperitoneal injection of streptozotocin (STZ; 200 mg/kg body weight) at day 1 and day 3. STZ was freshly prepared in 0.1 M citrate buffer (pH 4.5). After injection, mice were supplied with 10% sucrose overnight to prevent sudden hypoglycaemic shock. […] Vascular lesions in the retina was scored in all four retinal quadrants of flat mounts by an epifluorescence microscopy at 200×. […]

[3] = test system: STAT3; assay: Western blot of STAT3 phosphorylation in C2C12 cells; format: cell-based, mouse; conditions: C2C12 myoblast cells, 5 to 20 min after stimulation
Procedure: Cell lysis, fractionation, and SDS-PAGE were conducted in accordance with procedures described previously (Yang Y C et al., BMC Cancer 2007; 7:216). Antibodies used in this study were for Phospho-Stat3 and STAT3 (1:1000-fold dilution). Proteins of interest were detected using the appropriate IgG-HRP secondary antibody (Santa Cruz Biotechnology) and ECL reagent (Amersham Biosciences).

With “NH2-(D-Ser)-Leu-Gly-Ala-Glu-Gln-COOH (SLGAEQ; HELM PEPTIDE1{[dS].L.G.A.E.Q}$$$$V2.0; SMILES CC(C)C[C@H](NC(=O)[C@H](N)CO)C(=O)NCC(=O)N[C@@H](C)C(=O)N[C@@H](CCC(=O)O)C(=O)N[C@@H](CCC(N)=O)C(=O)O) [6-mer dS]” the “Number of TUNEL-positive cells in retina” value ([1]; subconjunctival injection 1 mM 4 h before I/R, 20 hours after I/R injury, Vehicle + I/R 27.2 ± 2.7) was 7.8 ± 1.5 /200 μm, the “I/R-induced retinal cell apoptosis (TUNEL staining), in words” value ([1]; subconjunctival injection prior to I/R, 20 h reperfusion) was “only smaller numbers of green fluorescent nuclei” and the GFAP-positive astrocytes [2] was 11.0±1.4 numbers/400× field. For the same substance, the “STAT3 phosphorylation (immunoblot)” value [3] was “led to STAT3 phosphorylation”.
